Laboratory results published in US11857519B2, “Compounds and methods for the targeted degradation of enhancer of zeste homolog 2 polypeptide” (Arvinas Operations, Inc., priority 2016, dated 2024).

Target: T1, EZH2 (Homo sapiens, UniProt Q15910)
T1 construct: Protocol of the Cellular Assay of Target Protein Degradation (VCaP Cells, ELISA); endogenous in cells; host or cells: VCaP cells
Test: Cellular assay of target protein degradation (VCaP cells, ELISA)
Assay type: cell-based
Details: 4 hours, protein degradation range at indicated concentration (relative to DMSO control)
Procedure: Protocol of the Cellular Assay of Target Protein Degradation (VCaP Cells, ELISA).
For detection Cell Signaling PathScan Sandwich ELISA Catalog #12850 Lot 11 was used. VCaP cells were cultured in ATCC DMEM+ATCC FBS and plated 40,000/well 100 μl/well in RPMI P/S with 5% CSS Omega (bovine) serum into a 96 well plate. The cells were grown for a minimum of 3 days, dosed with compounds in 0.1% DMSO (diluted with 5% CSS) and incubated with aspiration for 4 hours. 100 μl of 1× Cell Signaling lysis buffer #9803 (36 mL dH2O+4 mL Cell Signaling lysis buffer) was added. The incubation was placed on cold room shaker for 10 minutes at speed 8-9. 5 μl to 100 μL of Diluent was transferred to ELISA plate (0.15 μg/mL−0.075 μg/mL) and stored at 4° C. overnight on cold room shaker speed 5 (gentle swirl) and then shaken next morning at 37° C. for 30 minutes. The preparation was washed 4×200 μl with ELISA wash buffer and aspirated with eight-channel aspirator. 100 μl/well of target protein detection antibody was added after, which the preparation was covered and shaken at 37° C. for 1 hour. 100 μl TMB was added, and the mixture was shaken for 5 min while under observation. When TMB turned light blue, 100 μl of Stop solution was added, and the mixture was shaken and read at 450 nm. Also read at 562 nm for background subtraction.

T1 sequence (Q15910 whole entry): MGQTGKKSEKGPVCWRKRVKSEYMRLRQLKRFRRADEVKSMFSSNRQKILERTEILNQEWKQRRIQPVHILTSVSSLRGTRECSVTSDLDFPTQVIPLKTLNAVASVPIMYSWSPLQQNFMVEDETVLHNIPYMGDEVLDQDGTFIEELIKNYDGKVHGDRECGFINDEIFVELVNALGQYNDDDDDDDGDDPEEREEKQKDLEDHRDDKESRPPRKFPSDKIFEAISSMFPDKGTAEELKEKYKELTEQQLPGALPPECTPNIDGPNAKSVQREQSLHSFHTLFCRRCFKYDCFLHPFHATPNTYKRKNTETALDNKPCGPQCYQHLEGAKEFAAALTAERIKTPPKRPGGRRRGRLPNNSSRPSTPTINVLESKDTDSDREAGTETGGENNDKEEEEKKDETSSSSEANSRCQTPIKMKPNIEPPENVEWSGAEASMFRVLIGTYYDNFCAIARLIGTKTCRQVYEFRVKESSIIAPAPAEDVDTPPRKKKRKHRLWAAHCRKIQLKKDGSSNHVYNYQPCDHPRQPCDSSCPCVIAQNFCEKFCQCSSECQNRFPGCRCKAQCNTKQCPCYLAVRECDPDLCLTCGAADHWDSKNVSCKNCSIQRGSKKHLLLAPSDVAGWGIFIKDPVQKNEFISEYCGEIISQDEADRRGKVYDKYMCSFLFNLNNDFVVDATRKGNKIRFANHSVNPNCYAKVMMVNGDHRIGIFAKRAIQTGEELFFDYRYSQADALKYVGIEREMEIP
T1 sequence (O75530 whole entry partner): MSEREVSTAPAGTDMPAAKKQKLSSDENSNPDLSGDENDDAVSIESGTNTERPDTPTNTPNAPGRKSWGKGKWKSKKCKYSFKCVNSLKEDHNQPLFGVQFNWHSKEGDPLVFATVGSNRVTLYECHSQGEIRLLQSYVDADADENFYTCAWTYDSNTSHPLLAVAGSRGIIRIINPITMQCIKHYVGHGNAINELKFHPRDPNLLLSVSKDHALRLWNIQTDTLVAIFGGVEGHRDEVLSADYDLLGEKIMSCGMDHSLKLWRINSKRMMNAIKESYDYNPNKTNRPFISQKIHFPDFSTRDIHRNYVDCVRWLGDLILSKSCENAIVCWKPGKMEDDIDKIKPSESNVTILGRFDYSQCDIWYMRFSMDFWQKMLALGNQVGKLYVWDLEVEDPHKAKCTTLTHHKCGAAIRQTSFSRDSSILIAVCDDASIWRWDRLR
T1 sequence (Q15022 whole entry partner): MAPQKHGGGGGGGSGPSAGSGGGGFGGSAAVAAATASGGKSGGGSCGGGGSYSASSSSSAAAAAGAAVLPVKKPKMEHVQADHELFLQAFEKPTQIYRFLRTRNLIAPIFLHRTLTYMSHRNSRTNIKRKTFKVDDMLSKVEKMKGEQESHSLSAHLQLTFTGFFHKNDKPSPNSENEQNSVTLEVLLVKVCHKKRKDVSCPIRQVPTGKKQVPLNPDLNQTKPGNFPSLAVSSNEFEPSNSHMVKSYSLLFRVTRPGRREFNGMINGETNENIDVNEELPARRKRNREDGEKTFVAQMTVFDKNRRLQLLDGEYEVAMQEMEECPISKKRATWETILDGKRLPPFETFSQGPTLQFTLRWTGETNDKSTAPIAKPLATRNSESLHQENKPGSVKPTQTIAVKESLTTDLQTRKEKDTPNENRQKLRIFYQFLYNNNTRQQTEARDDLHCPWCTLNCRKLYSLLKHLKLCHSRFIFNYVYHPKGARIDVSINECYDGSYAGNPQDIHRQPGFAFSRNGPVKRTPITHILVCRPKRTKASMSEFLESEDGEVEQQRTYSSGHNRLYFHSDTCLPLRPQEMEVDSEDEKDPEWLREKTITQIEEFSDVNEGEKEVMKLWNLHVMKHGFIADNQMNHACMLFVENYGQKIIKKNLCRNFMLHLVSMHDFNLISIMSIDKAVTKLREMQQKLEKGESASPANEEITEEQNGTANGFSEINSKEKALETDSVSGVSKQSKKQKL

SMILES	percent target protein degradation class
CCN(c1cc(-c2ccc(OCCOCCOCCOc3ccc(CCN4CC[C@@H]5CCN(C(=O)[C@@H](NC(=O)[C@H](C)NC)C6CCCCC6)[C@@H]5C4)cc3)cc2)cc(C(=O)NCc2c(C)cc(C)[nH]c2=O)c1C)C1CCOCC1 (racemic) [Compound 26, 5-[4-(2-{2-[2-(4-{2-[(3aR,7aS)-1-[(2S)-2-cyclohexyl-2-[(2S)-2-(methylamino)propanamido]acetyl]-octahydro-1H-pyrrolo[2,3-c]pyridin-6-yl]ethyl}phenoxy)ethoxy]ethoxy}ethoxy)phenyl]-N-[(4,6-dimethyl-2-oxo-1,2-dihydropyridin-3-yl)methyl]-3-[ethyl(oxan-4-yl)amino]-2-methylbenzamide]	B (B = degradation between 30% and 60%)
CCN(c1cc(-c2ccc(OCCOCCOCCOCCOCCOc3ccc(CCN4CC[C@@H]5CCN(C(=O)[C@@H](NC(=O)[C@H](C)NC)C6CCCCC6)[C@@H]5C4)cc3)cc2)cc(C(=O)NCc2c(C)cc(C)[nH]c2=O)c1C)C1CCOCC1 (racemic) [Compound 29, 5-(4-{[1-(4-{2-[(3aR,7aS)-1-[(2S)-2-cyclohexyl-2-[(2S)-2-(methylamino)propanamido]acetyl]-octahydro-1H-pyrrolo[2,3-c]pyridin-6-yl]ethyl]phenyl)-1,4,7,10,13-pentaoxapentadecan-15-yl]oxy}phenyl)-N-[(4,6-dimethyl-2-oxo-1,2-dihydropyridin-3-yl)methyl]-3-[ethyl(oxan-4-yl)amino]-2-methylbenzamide]	B (B = degradation between 30% and 60%)
Cc1cc(C)c(CNC(=O)c2cc(-c3ccc(CN4CCN(CCOCC(=O)N[C@H](C(=O)N5C[C@H](O)C[C@H]5C(=O)NCc5ccc(-c6scnc6C)cc5)C(C)(C)C)CC4)cc3)cc3c2ccn3C2CCCC2)c(=O)[nH]1 [Compound 1, 1-cyclopentyl-N-[(4,6-dimethyl-2-oxo-1,2-dihydropyridin-3-yl)methyl]-6-[4-({4-[2-({[(2S)-1-[(2S,4R)-4-hydroxy-2-({[4-(4-methyl-1,3-thiazol-5-yl)phenyl]methyl}carbamoyl)pyrrolidin-1-yl]-3,3-dimethyl-1-oxobutan-2-yl]carbamoyl}methoxy)ethyl]piperazin-1-yl}methyl)phenyl]-1H-indole-4-carboxamide]	B (B = degradation between 30% and 60%)
Cc1cc(C)c(CNC(=O)c2cc(-c3ccc(CN4CCN(CCOCCOCC(=O)N[C@H](C(=O)N5C[C@H](O)C[C@H]5C(=O)NCc5ccc(-c6scnc6C)cc5)C(C)(C)C)CC4)cc3)cc3c2ccn3C2CCCC2)c(=O)[nH]1 [Compound 2, 1-cyclopentyl-N-[(4,6-dimethyl-2-oxo-1,2-dihydropyridin-3-yl)methyl]-6-{4-[(4-{2-[2-({[(2S)-1-[(2S,4R)-4-hydroxy-2-({[4-(4-methyl-1,3-thiazol-5-yl)phenyl]methyl}carbamoyl)pyrrolidin-1-yl]-3,3-dimethyl-1-oxobutan-2-yl]carbamoyl}methoxy)ethoxy]ethyl)piperazin-1-yl)methyl]phenyl}-1H-indole-4-carboxamide]	B (B = degradation between 30% and 60%)
Cc1cc(C)c(CNC(=O)c2cc(-c3ccc(CN4CCN(CCOCCCCOCC(=O)N[C@H](C(=O)N5C[C@H](O)C[C@H]5C(=O)NCc5ccc(-c6scnc6C)cc5)C(C)(C)C)CC4)cc3)cc3c2ccn3C2CCCC2)c(=O)[nH]1 [Compound 3, 1-cyclopentyl-N-[(4,6-dimethyl-2-oxo-1,2-dihydropyridin-3-yl)methyl]-6-{4-[(4-{2-[4-({[(2S)-1-[(2S,4R)-4-hydroxy-2-({[4-(4-methyl-1,3-thiazol-5-yl)phenyl]methyl}carbamoyl)pyrrolidin-1-yl]-3,3-dimethyl-1-oxobutan-2-yl]carbamoyl}methoxy)butoxy]ethyl}piperazin-1-yl)methyl]phenyl}-1H-indole-4-carboxamide]	B (B = degradation between 30% and 60%)
